Results reported in patent US11691992B2 (Anacor Pharmaceuticals, Inc., priority 2017, dated 2023).

Assays:
[1] = system: luciferase-expressing L. major parasites developing intracellularly inside RAW 264.7 macrophages; assay: Leishmania major intracellular amastigote assay in RAW 264.7 macrophages (luciferase); format: cell-based; conditions: RAW264.7, 96 hours, read-out: IC50: I Org. intracellular amastigote Growth L. major, 4 d
Summary of the method: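 RAW 264.7 macrophages infected overnight with luciferase-expressing L. major promastigotes, washed of extracellular parasites, then exposed to two-fold compound dilutions (final 0.5-10,000 ng/ml) for 96 h at 37° C, 5% CO2. Luciferin luminescence after 30 min; IC50 by sigmoidal variable-slope regression.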

[2] = system: IL3000 T. congolense (drug sensitive) strain; assay: In vitro Alamar Blue 72 h drug sensitivity assay for T. congolense; format: cell-based; conditions: Trypanosoma congolense; bloodstream form, 69 h + 3 h resazurin, 34° C.; classes A-C; read-out: IC50: I Org. Growth T. congolense IL-3000, 3 d
Summary of the method: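 Bloodstream-form trypanosomes in HMI medium with 20% bovine serum, exposed to compound for 69 h at 34 °C, 5% CO2, then resazurin for 3 h more. Fluorescence read at 536/588 nm. IC50 from 11-point sigmoidal dose-response curves, at least three independent runs.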

With `O=C(Nc1ccc2c(c1)B(O)OC21CCC1)c1cn(-c2ccccc2)nn1` [Example 3, N-(1-hydroxy-1H-spiro[benzo[c][1,2]oxaborole-3,1′-cyclobutan]-6-yl)-1-phenyl-1H-1,2,3-triazole-4-carboxamide] as the compound, how does the IC50 [1] read?
Its IC50 is no more than 1000 nM.

And the IC50 [2]?
Its IC50 is 100 to 300 nM.

For `COc1ccc(-n2cc(C(=O)Nc3ccc4c(c3)B(O)OC4)nn2)cc1` [Example 21, N-(1-hydroxy-1,3-dihydrobenzo[c][1,2]oxaborol-6-yl)-1-(4-methoxyphenyl)-1H-1,2,3-triazole-4-carboxamide], which IC50 [1] is on record?
The IC50 was no more than 1000 nM.

What about the IC50 [2] of the same compound?
Its IC50 is less than 100 nM.

`O=C(Nc1ccc2c(c1)B(O)OC2)c1nnn(-c2cccnc2)c1C(F)(F)F` [Example 71, N-(1-hydroxy-1,3-dihydrobenzo[c][1,2]oxaborol-6-yl)-1-(pyridin-3-yl)-5-(trifluoromethyl)-1H-1,2,3-triazole-4-carboxamide] was tested. Which IC50 [1] did it give?
The IC50 was no more than 1000 nM.

What about the IC50 [2] of the same compound?
The IC50 was less than 100 nM.
